Among the test systems are DU-145; EKVX; HCT-116; HCT-15; HOP-62; HOP-92; Hs-578T; K562; MDA-MB-231; MOLT-4; NCI-H226; OVCAR-3; OVCAR-8; PC-3; RPMI-8226; RXF 393; SK-MEL-28; TK-10; UACC-257; UO-31.
Common to all, as to assay: DTP human tumour cell line panel, 48 h

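Compound exposure: 48 hours, 5 concentrations, 96-well plates. At the GI50, growth is halved.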 Calls of active or inactive are those of the source. Cut-off read from the data, not from the text of the source: active = GI50 up to about 1.1 µM and inactive = higher.

This note sets out measurements from ChEMBL document CHEMBL1201862, “PubChem BioAssay data set” (2004).

With `CC(C)(C)NCCC(O)c1cc(C(F)(F)F)nc2c(C(F)(F)F)cccc12` (stereo not given), the GI50 in the test on DU-145 is 2.38 µM (inactive); in the test with EKVX, 14 µM (inactive); in the test on HCT-116, 5.07 µM (inactive); in the test with HCT-15, 6.41 µM; with HOP-62, 4.67 µM (inactive); with HOP-92, 12.3 µM (inactive). Besides, the GI50 was 14.2 µM (inactive) in the test with Hs-578T; 5.14 µM (inactive) in the test on K562; 9.4 µM (inactive) with MDA-MB-231; 4.12 µM (inactive) in the test with MOLT-4; 17.3 µM (inactive) with NCI-H226; 8.38 µM (inactive) with OVCAR-3. In addition, the GI50 was 7.53 µM (inactive) in the test on OVCAR-8; 8.57 µM (inactive) in the test on PC-3; 4.58 µM (inactive) in the test on RPMI-8226; 6.53 µM (inactive) in the test on RXF 393; 15.7 µM (inactive) with SK-MEL-28; 12.2 µM (inactive) in the test with TK-10. The figures for the GI50 with UACC-257 and in the test on UO-31 were 13.5 µM (inactive) and 0.502 µM (active), respectively.

The term GI50 denotes the concentration at which growth is held to half of that of the control.
